Reference: publication PMC10419174, “WR1065 conjugated to thiol-PEG polymers as novel anticancer prodrugs: broad spectrum efficacy, synergism, and drug resistance reversal” (Frontiers in Oncology, 2023)
Read-outs that look alike come from different tables or passages of the source. Marks after values point to notes of the source that are not given here.

Columns and labels:
Ovary SKOV3 cells [1] = test system: Ovary SKOV3 cells; parameters: method as in PMID 29258181, PMID 12507923, PMID 35770045, PMID 31488557; conditions: cited from earlier work
Lung NCI-H1975 cells = test system: Lung NCI-H1975 cells; parameters: method as in PMID 29258181, PMID 12507923, PMID 35770045, PMID 31488557; conditions: cited from earlier work
Lung NCI-H460 cells [2] = test system: Lung NCI-H460 cells; parameters: method as in PMID 29258181, PMID 12507923, PMID 35770045, PMID 31488557; conditions: cited from earlier work
Lung A549 cells [3] = test system: Lung A549 cells; parameters: method as in PMID 29258181, PMID 12507923, PMID 35770045, PMID 31488557; conditions: cited from earlier work
[4] = test system: Acute promyelocytic HL60 leukemia cells; parameters: method as in PMID 29258181, PMID 12507923, PMID 35770045, PMID 31488557; conditions: cited from earlier work
Ovary SKOV3 cells [5] = test: cells
Protocol: (§1) The percentage of growth inhibition was calculated as follows: […]

Prostate LNCaP cells = test: cells; conditions: Homo sapiens, LNCaP, 48 h
Protocol: as §1

A549 NSCLC cells = test: cells
Protocol: as §1

Pancreas PANC-1 cells [6] = test: cells; conditions: Homo sapiens, PANC-1, 48 h
Protocol: as §1

human cancer cell lines = test: cells; conditions: for cytolytic effects: exposure levels up to 500 µM, 48 h; for GI50: Homo sapiens
Protocol: as §1

Prostate DU145 cells [7] = test: cells; conditions: Homo sapiens, DU-145, 48 h
Protocol: as §1

[8] = test system: Malignant pleural mesothelioma PPMMill cells; test: cells; conditions: 48 h
Protocol: as §1

Ovary TOV21G cells = test: cells
Protocol: as §1

NCI-H1975 NSCLC cells = test: cells; conditions: Homo sapiens, NCI-H1975, 48 h
Protocol: as §1

Prostate PC3 cells [9] = test: cells
Protocol: as §1

[10] = test system: human Hec50co (p53-null) endometrial tumor xenografts; conditions: single agent; cited from earlier work
[11] = test system: Mammary gland MDA-MB-231 cells; test: CyQUANT-NF proliferation assay, 48-h drug treatment; format: cell-based; conditions: Homo sapiens, MDA-MB-231; 48-h treatment; amifostine ND = not definable up to 500 µM
Protocol: Since the BRG prodrugs are composed of WR1065 as one of the major constituents, assays were conducted to determine if factors reported to modulate the activity of amino acid and polyamine plasma membrane transport systems impacted the efficacy of 4SP65 or 1LP65 in selected cancer cell lines. HL60 cells were exposed to 4SP65 with up to 0.5 mM NaCl, MBA-MD-231 cells were tested in the presence and absence of medium supplemented with estradiol plus insulin (in the BulletKit™ for growth supplements for NHMECs), HCC38 cells were exposed to 4SP65 with and without 10 µM insulin added to the growth medium, and multiple cells lines were pretreated for 24 h with 1 mM DFMO prior to starting exposures to 4SP65.
as §1

[12] = test system: Mammary gland HCC38 cells; test: as above; format: cell-based; conditions: 48-h treatment, amifostine ND = not definable up to 500 µM
Ovary SKOV3 cells [13] = conditions: cited from earlier work; for GI50 / TGI: ref NCI Database of Screening Results
Lung A549 cells [14] = conditions: cited from earlier work; for GI50 / TGI: ref NCI Database of Screening Results
[15] = test system: Mammary gland MDA-MB-231 cells; conditions: cited from earlier work; for GI50: ref NCI Database of Screening Results
NCI-H460 NSCLC cells = conditions: drug alone, 48 h, 4SP65/cisplatin study
From the text: To test anticancer effectiveness of individual drugs or drug combinations, the CyQUANT®-NF proliferation assay was used with a plate reader (i) to generate standard curves for cell numbers for each cell line, (ii) to measure the starting cell numbers at initiation of drug treatment, and (iii) to obtain fluorescence readings from cells in 96-well plates for comparisons to a standard curve for the relevant cancer cell line and quantifying cell viability after drug treatments. […] Trypan blue exclusion was used to estimate cell numbers in a few pilot experiments and thereafter was applied to confirm very low viable cell numbers and cell death.
A series of experiments was conducted to determine the relative efficacy of 4SP65, 1LP65, and amifostine as single agents in the same human cancer cell lines.
Five metrics were calculated and used to characterize the shape of the dose-response curve following exposure to a single test agent. Using cell numbers based on fluorescence measurements and standard curves, the percentage growth was calculated at each drug concentration level. The percentage of growth inhibition was calculated as follows:
where Tz = cell numbers or fluorescence counts at time xero, C = vehicle-exposed control cell numbers at the end of the assessment time period, and Ti = test agent-exposed cell numbers or fluorescence counts at each drug concentration. […] The LC50/99 was calculated using Equation 2 = -50 and Eq. 2 = -99, respectively. […] For NHMECs, the relationships between drug exposure levels and fluorescence units were used to define dose-response metrics. The selectivity index values for individual drugs were calculated using IC50 levels in NHMECs divided by the IC50 value for each cancer cell line. Statistical comparisons of differences in individual dose-response metrics between drug treatments and cell lines were conducted using Student’s t-test, with P-values <0.05 considered significant.
Relative cell growth inhibition values for differing levels of each drug alone and in combination were input into SynergyFinder to generate dose-response curves for each drug alone and to produce a dose-response matrix. The dose-response matrix data then were used in generating a two-dimension heatmap and three-dimension volcano plot to visualize the distribution of areas of differing degrees of synergism and to calculate average and maximum synergy scores in selected human cancer cell lines. The expected drug combination responses were calculated using both the Highest Single Agent (HSA) model and the Zero interaction potency (ZIP) model.

[16] = test system: Malignant pleural mesothelioma HMESO1 cells; conditions: drug alone, 48 h, 4SP65/cisplatin study
Protocol: as §1

Prostate DU145 cells [17] = test system: Prostate DU145 cells; parameters: method as in NCI Database of Screening Results; conditions: ref NCI Database of Screening Results; cited from earlier work
Lung NCI-H460 cells [18] = conditions: cited from earlier work; for GI50 / TGI: ref NCI Database of Screening Results
Prostate PC3 cells [19] = conditions: cited from earlier work
[20] = cited from earlier work
Pancreas PANC-1 cells [21] = test system: Pancreas PANC-1 cells; parameters: method as in PMID 29258181, PMID 12507923, PMID 35770045, PMID 31488557; conditions: cited from earlier work
[22] = test system: Mammary gland MDA-MB-231 cells; parameters: method as in PMID 29258181, PMID 12507923, PMID 35770045, PMID 31488557; conditions: cited from earlier work
[23] = test system: Acute promyelocytic HL60 leukemia cells; conditions: cited from earlier work
[24] = test system: temperature-dependent p53 mutants; parameters: method as in PMID 11429700, PMID 11870884, PMID 22710932, PMID 17724467; conditions: 11 temperature-dependent mutants analyzed; cited from earlier work
[25] = drug alone, 48 h, 4SP65/cisplatin study
[26] = drug alone, 48 h, 4SP65/cisplatin study, ND = not definable, highest concentration in parentheses
[27] = drug alone, 4SP65/cisplatin study
[28] = drug alone, 4SP65/cisplatin study, ND = not definable, highest concentration in parentheses
[29] = ND = not definable, highest concentration in parentheses
[30] = ref NCI Database of Screening Results

Compound: COCC1(CO)C(=O)C2CCN1CC2 (stereo not drawn) [APR-246]
- IC50 (Ovary SKOV3 cells [1]): 16.7 µM
- IC50 (Lung NCI-H1975 cells): 9.6 µM
- IC50 (Lung NCI-H460 cells [2]): 225 µM
- IC50 (Lung A549 cells [3]): 29 µM
- IC50 [4]: ~20 µM

Compound: NCCCNCCSP(=O)(O)O [Amifostine, amifostine, reference compound]
- GI50 (Ovary SKOV3 cells [5]; Homo sapiens, SK-OV-3, 48 h): 81 ± 13 µM
- IC50 (Ovary SKOV3 cells [5]; Homo sapiens, SK-OV-3, 48 h): 294 ± 119 µM
- GI50 (Prostate LNCaP cells): 150 ± 47 µM
- IC50 (Prostate LNCaP cells): 378 ± 122 µM
- GI50 (A549 NSCLC cells; Homo sapiens, A549, 48 h): 241 ± 130 µM
- IC50 (A549 NSCLC cells; Homo sapiens, A549, 48 h): 261 ± 120 µM
- GI50 (Pancreas PANC-1 cells [6]): 113 ± 39 µM
- LC50 (human cancer cell lines): Not definable ^k
- cancer cell lines with limited cytostatic effects (human cancer cell lines; 14 cell lines): 11/14
- cytolytic effects (human cancer cell lines; 14 cell lines): no cytolytic effects
- cytolytic effects (human cancer cell lines; 14 cell lines, listed as amifostine): not found in any cell line
- LC99 (human cancer cell lines; 14 cell lines, highest concentration 500 µM): Not definable ^k
- GI50 (human cancer cell lines; read-out: GI50 average, GI50 values >100 µM in 7/14 cell lines): 149 µM
- GI50 (human cancer cell lines; read-out: GI50 range, GI50 values <100 µM in 4/14 cell lines: HCC38, PC3, SKOV3, TOV21G): 47 to 81 µM
- GI50 (human cancer cell lines; read-out: GI50 range, seven of 14 cell lines): 113 to 378 µM
- GI50 (human cancer cell lines; read-out: average GI50, four cell lines where amifostine GI50 <100 µM): 64.8 µM
- TGI average (human cancer cell lines; only two cell lines, HCC38 and PC3): 278 ± 24 ^j µM
- GI50 (Prostate DU145 cells [7]): 126 ± 28 µM
- IC50 (Prostate DU145 cells [7]): 319 ± 105 µM
- GI50 ([8]; Homo sapiens): 378 ± 122 µM
- GI50 (Ovary TOV21G cells; Homo sapiens, TOV21G, 48 h): 47 ± 10 µM
- IC50 (Ovary TOV21G cells; Homo sapiens, TOV21G, 48 h): 57 ± 9 µM
- GI50 (NCI-H1975 NSCLC cells): 130 ± 26 µM
- TGI (Prostate PC3 cells [9]; 48-h treatment, amifostine ND = not definable up to 500 µM): 301 ± 115 µM
- GI50 (Prostate PC3 cells [9]; Homo sapiens, PC-3, 48 h): 53 ± 10 µM
- IC50 (Prostate PC3 cells [9]; Homo sapiens, PC-3, 48 h): 103 ± 15 µM
- inhibition of tumor xenograft growth compared to tumor size at start of treatment [10]: ~ 50%
- GI50 [11]: 241 ± 130 µM
- TGI [12]: 254 ± 123 µM
- GI50 ([12]; Homo sapiens, HCC38): 78.1 ± 35.7 µM
- IC50 ([12]; Homo sapiens, HCC38): 276 ± 92 µM

Compound: N.N.[Cl][Pt][Cl] [Cisplatin, cisplatin, reference compound]
- GI50 (Ovary SKOV3 cells [5]; [25]): 5.3 ± 0.4 µM
- IC50 (Ovary SKOV3 cells [5]; [25]): 6.7 ± 0.6 µM
- LC99 (Ovary SKOV3 cells [5]; [26]): ND (>21) µM
- TGI (Ovary SKOV3 cells [5]; [26]): ND (>21) µM
- gains of cytostatic and cytolytic activities, range (A549 NSCLC cells; 4SP65-cisplatin combined): 1.7- to 3.5 fold
- LC99, drug in combination (CMB) (A549 NSCLC cells; amount of each drug in combination, ratio 50% 4SP65:50% DDP, 48 h): 7 µM
- GI50 (A549 NSCLC cells; [25]): 3.5 ± 0.7 µM
- IC50 (A549 NSCLC cells; [25]): 4.7 ± 0.8 µM
- LC99 (A549 NSCLC cells; [25]): 24.4 ± 2.6 µM
- TGI (A549 NSCLC cells; [25]): 8.2 ± 1.0 µM
- gains of cytostatic and cytolytic activities, range (human cancer cell lines; 4SP65-cisplatin combined, H460, HMESO1, PPMMill, SKOV3): 1.7- to 6.9 fold
- GI50 [8, 27]: 27.2 ± 3.4 µM
- IC50 [8, 27]: 40.5 ± 8.1 µM
- LC99 [8, 28]: ND (>100) µM
- TGI [8, 28]: ND (>100) µM
- gains in total growth inhibition and cytolytic effects, range (Ovary TOV21G cells; 4SP65-cisplatin combined): 1.3- to 2.9 fold
- LC99, drug in combination (CMB) (Ovary TOV21G cells; amount of each drug in combination, ratio 14% 4SP65:86% DDP, 48 h): 5.9 µM
- GI50 (Ovary TOV21G cells; [25]): 2.2 ± 0.4 µM
- IC50 (Ovary TOV21G cells; [25]): 3 ± 0.3 µM
- LC99 (Ovary TOV21G cells; [25]): 17.2 µM
- TGI (Ovary TOV21G cells; [25]): 6.7 ± 0.3 µM
- LC99 (Ovary TOV21G cells; drug alone, 48 h, 4SP65/cisplatin study, listed as DDP): 17.2 ± 5.2 µM
- GI50 (Ovary SKOV3 cells [13]): 2.5 µM
- TGI (Ovary SKOV3 cells [13]): >100 µM
- GI50 (Lung A549 cells [14]): 3.8 µM
- TGI (Lung A549 cells [14]): >100 µM
- GI50 [15]: 22.4 µM
- GI50 (NCI-H460 NSCLC cells): 3.1 ± 0.1 µM
- IC50 (NCI-H460 NSCLC cells): 4 ± 0.1 µM
- LC99 (NCI-H460 NSCLC cells; [29]): ND (>15) µM
- TGI (NCI-H460 NSCLC cells; [29]): ND (>15) µM
- GI50 [16]: 3 ± 0.4 µM
- IC50 [16]: 8.6 ± 1.1 µM
- TGI [16]: 6.7 ± 0.7 µM
- LC99 [16, 29]: ND (>15) µM
- GI50 (Prostate DU145 cells [17]): 2 µM
- GI50 (Lung NCI-H460 cells [18]): 0.6 µM
- TGI (Lung NCI-H460 cells [18]): >100 µM
- GI50 (Prostate PC3 cells [19]; [30]): 5 µM

Compound: COc1cc2ncnc(Nc3ccc(F)c(Cl)c3)c2cc1OCCCN1CCOCC1 [GEF, gefitinib, reference compound]
- trough levels ([20]; 250 mg daily, after 3 days of treatment): 0.257−4.50 µM
- trough levels ([20]; 250 mg daily, after 8 days of treatment): 0.282−6.55 µM
- Cmax ([20]; 250 mg daily, printed 'or more', read-out: Cmax plasma concentrations): 0.5 to 1 µM
- elimination half-life [20]: 48 h

Compound: O=C1C2CCN(CC2)C1(CO)CO [PRIMA-1]
- GI50 (Ovary SKOV3 cells [1]): 63 µM
- IC50 (Pancreas PANC-1 cells [21]): 66 µM
- GI50 (Lung NCI-H460 cells [2]): 40 µM
- GI50 (Lung A549 cells [3]): 63 µM
- IC50 [22]: 141 µM

Compound: CC(=O)O[C@H]1C(=O)[C@@]2(C)[C@H]([C@H](OC(=O)c3ccccc3)[C@]3(O)C[C@H](OC(=O)[C@H](O)[C@@H](NC(=O)c4ccccc4)c4ccccc4)C(C)=C1C3(C)C)[C@]1(OC(C)=O)CO[C@@H]1C[C@@H]2O [Paclitaxel, paclitaxel]
- inhibition of tumor xenograft growth compared to tumor size at start of treatment [10]: ~ 50%
- CC50 (Ovary SKOV3 cells [13]): > 100 µM
- GI50 (Ovary SKOV3 cells [13]): 0.52 µM
- TGI (Ovary SKOV3 cells [13]): 5.2 µM
- CC50 (Lung A549 cells [14]): > 100 µM
- GI50 (Lung A549 cells [14]): 9.2 µM
- TGI (Lung A549 cells [14]): >100 µM
- CC50 [15]: > 100 µM
- GI50 [15]: 6.4 µM
- CC50 [23]: > 100 µM
- GI50 [23, 30]: 25.8 µM
- TGI [23, 30]: >100 µM
- GI50 (Prostate DU145 cells [17]): 1.9 µM
- TGI (Prostate DU145 cells [17]): >100 µM
- CC50 (Lung NCI-H460 cells [18]): > 100 µM
- GI50 (Lung NCI-H460 cells [18]): 5.8 µM
- TGI (Lung NCI-H460 cells [18]): 90.4 µM
- CC50 (Prostate PC3 cells [19]): > 100 µM
- GI50 (Prostate PC3 cells [19]; [30]): 36.4 µM
- TGI (Prostate PC3 cells [19]; [30]): >100 µM

Compound: NCCCNCCS [WR1065, 2-[(3-aminopropyl)amino]ethanethiol]
- p53 mutants reactivated to some degree [24]: 8/11
